Data set [1] concerns the target T1, Aurora-A122-403-C290A/C393A (Homo sapiens, UniProt O14965, C290A/C393A).
T1 construct: Human Aurora-A kinase domain 122-403 wild-type or C290A/ C393A mutant; His tag (pET30TEV vector) (N, cleaved yes); made in house; host or cells: E. coli RIL, co-expressed with lambda phosphatase (Aurora-A); tracer by solid phase synthesis
T1 sequence (O14965 122-403 C290A/C393A): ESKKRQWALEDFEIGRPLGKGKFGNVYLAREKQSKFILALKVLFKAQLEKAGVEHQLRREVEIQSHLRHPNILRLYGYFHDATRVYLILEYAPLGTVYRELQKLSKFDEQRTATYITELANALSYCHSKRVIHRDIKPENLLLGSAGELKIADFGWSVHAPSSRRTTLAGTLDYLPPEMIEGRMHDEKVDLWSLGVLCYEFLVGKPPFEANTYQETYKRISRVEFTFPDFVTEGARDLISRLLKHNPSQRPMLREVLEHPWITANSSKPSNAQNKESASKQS
Put plainly: FA direct binding assay (Aurora-A titrated into FAM-Ahx-labelled peptide). The arrangement: ΔG: unit not given here. The conditions noted are these: 50 nM fluorescein-labelled peptide. The protocol:
Fluorescence anisotropy (FA) assays – General information.
All assays were performed using 384-well plates(Greiner Bio-one, UK). […]
produced as described previously.11 All samples were prepared in 25 mM Tris,150 mM NaCl, 5 mM MgCl2, […]
(PerkinElmer; Waltham, MA, USA).The parameters were set as follows: Excitation wavelength = 480 nm […]
Measured data were processed and analysed as previously described.12 Specifically, the perpendicular intensity (P) and parallel intensity (S) were subtracted by the control values and used for calculations of intensity and anisotropy using the following Equations 1, 2, 3, 4, and 5:
I= (2PG) + S Eq. (SI − 5)
r = (S − PG) Eq. (SI − 6)
L = r − r௠௜௡ Eq. (SI − 7)
y = (k + x + [FL]) − ඥ(k + x + [FL]2 − 4 ∗ x ∗ [FL]) Eq. (SI − 8)
y = r + r௠௜௡ − r௠௔௫ Eq. (SI − 9)
Where I = total intensity; P = perpendicular intensity; S = parallel intensity; G = instrument factor; r = anisotropy; Lb = ligand bound fraction; λ = change in intensity between bound and unbound states which […]
FA direct binding assays. […]
starting from 700 μM, diluted over 24 points in a 1/2 regime using the FAM-Ahx-labeled peptides at a final fixed concentration of 50 nM per well.

Data set [2] addresses T1, Aurora-A122-403-C290A/C393A. Kind of data set: Variable-temperature fluorescence anisotropy (VT-FA) Van't Hoff analysis. The data set is classed as binding. The protocol: Variable-temperature fluorescence anisotropy (VT-FA) Van't Hoff analysis. Variable temperature-fluorescent anisotropy assays were performed in 384-well plates (Greiner Bio-one) with Aurora-A 122-403-290A/C393A protein dialyzed into different assay buffers before use. In this experiment, we prepared five […]
Buffer 1 – 25 mM HEPES, 150 mM NaCl, 5 mM MgCl2, pH= 7.5, Buffer 2 – 25 mM Tris, 150 mM NaCl, 5 mM MgCl2, pH= 7.5, Buffer 3 – 25 mM HEPES, 5 mM MgCl2, pH= 7.5, Buffer 4– 25 mM HEPES, 150 mM NaCl, 5 mM MgCl2, pH= 6.0, Buffer 5– 25 mM HEPES, 150 mM NaCl, 5 mM MgCl2, pH= 8.0, The protein concentration in the first well started at 237 μM in the corresponding buffer, and was diluted over 16 points in a 1/2 dilution regime. The concentration of the labeled peptide was fixed at 50 nM per well. After incubation of the plate at room temperature for 1 h, the plates were read at increasing intervals of 2.5°C, following a minimum period of 5 min equilibration at each temperature. The data was processed as previously described and the ln Ka at each temperature plotted against 1/T (K). The ΔG°, ΔH° and -T*ΔS° were calculated according to Van’t Hoff’s equation (6): […]
(§1) r = r଴ + A x e భ Eq. (SI - 10)
τ = tଵ ln(2) Eq. (SI - 11) […]
Western blots were performed using an anti-Phospho-Thr288
A general note: Polarisation of emitted light reports the rotation of a fluorescent probe.

Data set [3] has the same target. Kind of data set: Competition FA assay against FAM-Ahx-TACC3 522-536 tracer. The conditions noted are these: SD; read-out: IC50. The class given is binding.
A short description of data set [4]: Peptide enzymatic degradation assay, α-chymotrypsin. The class given is in vitro ADME, bovine. The note with it: isolated enzyme chymotrypsin; α-chymotrypsin (bovine pancreas), peptide 100 µM, peptide/enzyme molar ratio [P]/[E]= 25, HEPES 25 mM, pH 7.5, 25 °C, 6 hours; RP-HPLC peak area, exponential decay fit; three independent experiments, mean ± SD; SD; read-out: t1/2 in the presence of α-chymotrypsin. On the procedure: into individual aliquots at -20 °C. […]
a concentration of 1 mg mL−1 concentration. The digestion samples were immediately prepared by mixing […]
were then incubated at 25 °C for 6 hours. […]
thermo-shaker for 6 hours. […]
presence of enzyme (t=0). […]
as §1
τ = tଵ ln(2) Eq. (SI - 11)
In all cases, control samples were […]
replicates and error bars indicating the corresponding SD. […]

In data set [5] the target is T1, Aurora-A122-403-C290A/C393A. Put plainly: Isothermal titration calorimetry (ITC). The data set is classed as binding. The note with it: ITC as E13. The protocol: Isothermal titration calorimetry (ITC). ITC experiments were carried out using a MicroCal PEAQ-ITC system (Malvern Panalytical) at 25 °C. A stock solution of Aurora-A 122-403-290A/C393A was dialyzed into ITC buffer overnight (25 mM Tris buffer, pH= 7.5; 150 mM NaCl; 5 mM MgCl2; 5 % v/v glycerol), and the same buffer was employed to resuspend a solid portion of the testing peptides. For each experiment, initially, the cell was filled with 275 µl of Aurora-A122-403-290A/C393A (46 μM) and the syringe was loaded with the corresponding peptide at 1.25 mM concentration. An initial injection of 0.5 μL was then followed by 13 injections of 3 μL, every 150 s, with a constant syringe rotation speed of 750 rpm throughout. The signal for the enthalpy of dilution of each peptide into buffer was independently measured in a control titration experiment and then subtracted from the experimental binding traces. The Kd, ΔG°, ΔH° and -TΔS° values were determined via the MicroCal PEAQ-ITC analysis software (Malvern Paranalytical) using a single-site binding model. […]
(In ITC the heat of successive injections is recorded.)

The target of data set [6] is T2, Aurora-A 122-403 (Homo sapiens, UniProt O14965).
T2 chain: T1 sequence (O14965 122-403 C290A/C393A) with A169C, A272C
Kind of data set: fluorescence anisotropy competition.

[7] abbreviates: as E43, Buffer 1 – 25 mM HEPES, 150 mM NaCl, 5 mM MgCl2, pH= 7.5.
Setting [8] is: as E43, Buffer 2 – 25 mM Tris, 150 mM NaCl, 5 mM MgCl2, pH= 7.5.
[9] abbreviates: as E43, Buffer 3 – 25 mM HEPES, 5 mM MgCl2, pH= 7.5.
The mark [10] stands for this setting: as E43, Buffer 4 – 25 mM HEPES, 150 mM NaCl, 5 mM MgCl2, pH= 6.0.
Setting [11] is: as E43, Buffer 5 – 25 mM HEPES, 150 mM NaCl, 5 mM MgCl2, pH= 8.0.

Positions count from the first letter of the chain named. Numbers in names are those of the source. *1 amine or outer side, *2 acyl side, *3 side chain or, on linkers, in order; H or OH if unused. Where a SMILES comes first, the peptide text is derived from it. Bridges are numbered along the chain shown (N, C = ends). Where no end group is shown, it is not given here. [ ]: non-standard residue; d: D form. The star is where a group is joined. 5FAM = O=C1OC2(c3ccc(O)cc3Oc3cc(O)ccc32)c2ccc(C(=O)*)cc21; Biphenyl(4,4'-CH2)2 = c1cc(-c2ccc(C[*:2])cc2)ccc1C[*:1]; Pro(trans-4-F) = O=C(O)[C@@H]1C[C@@H](F)CN1; Phe(4-Br) = N[C@@H](Cc1ccc(Br)cc1)C(=O)O; Phe(4-Cl) = N[C@@H](Cc1ccc(Cl)cc1)C(=O)O; Phe(4-I) = N[C@@H](Cc1ccc(I)cc1)C(=O)O; Nle = CCCC[C@H](N)C(=O)O; Ahx = NCCCCCC(=O)O Where only a bound is given, the exact number is not on record here.

For `CC(C)C[C@H](NC(=O)[C@@H](NC(=O)[C@H](CCC(=O)O)NC(=O)[C@H](C)NC(=O)[C@@H]1C[C@@H](F)CN1C(=O)[C@H](CC(=O)O)NC(=O)[C@@H]1CSCc2ccc(cc2)-c2ccc(cc2)CSC[C@H](NC(=O)[C@H](CCC(=O)O)NC(=O)[C@H](CC(C)C)NC(=O)CCCCCNC(=O)c2ccc3c(c2)C(=O)OC32c3ccc(O)cc3Oc3cc(O)ccc32)C(=O)N[C@@H](CCCCN)C(=O)N[C@@H](CCC(=O)O)C(=O)N[C@@H](CCC(=O)O)C(=O)N[C@@H](CO)C(=O)N[C@@H](Cc2ccc(I)cc2)C(=O)N1)C(C)C)C(N)=O` [FAM-Ahx-TACC3 518-532-L/R-Bph-IF/fP] ({5FAM-Ahx}-LECKEES[Phe(4-I)]CD[Pro(trans-4-F)]AEVL-NH2; linker 3-9 via Biphenyl(4,4'-CH2)2), the Kd – broadly, the equilibrium constant for the complex coming apart – in data set [1] (Table S6, direct FA titration, Tris buffer pH 7.5, mean ± SD, n = 6, read-out: Kd) turned out to be 1.42 ± 0.24 µM. Besides, the ΔG in data set [1] (Table S6, from direct FA titration, mean ± SD, n = 6) was -33.4 ± 0.5. For the same molecule, the ΔΔGConstrained-WT is -4.50 ± 3.6 kJ mol -1 in data set [2] (VT-FA Van't Hoff, 50 nM FAM-Ahx tracers, 25-35 °C, constrained minus linear FAM-Ahx-TACC3 518-532, Buffer 1 – 25 mM HEPES, 150 mM NaCl, 5 mM MgCl2, pH= 7.5, triplicate); -3.17 ± 2.0 kJ mol -1 in data set [2] (setting [8]); -6.82 ± 5.9 kJ mol -1 in data set [2] (setting [9]); -4.06 ± 4.1 kJ mol -1 in data set [2] (setting [10]); -3.02 ± 1.8 kJ mol -1 in data set [2] (setting [11]). Moreover, the ΔTΔSConstrained-WT in data set [2] (setting [7]) is reported as -17.91 ± 2.4 kJ mol -1; in data set [2] (setting [8]), -17.85 ± 1.6 kJ mol -1; in data set [2] (setting [9]), -22.94 ± 2.9 kJ mol -1; in data set [2] (setting [10]) it was -11.33 ± 2.0 kJ mol -1; in data set [2] (setting [11]), -13.22 ± 0.9 kJ mol -1. Also, the ΔΔHConstrained-WT in data set [2] (setting [7]) amounted to 14.18 ± 2.5 kJ mol -1; in data set [2] (setting [8]) it was 14.67 ± 0.4 kJ mol -1; in data set [2] (setting [9]) it was 16.12 ± 3.0 kJ mol -1; in data set [2] (setting [10]) it was 7.27 ± 2.1 kJ mol -1; in data set [2] (setting [11]), 10.19 ± 0.9 kJ mol -1.
For the molecule `CC(=O)N[C@@H](CC(C)C)C(=O)N[C@@H](CCC(=O)O)C(=O)N[C@@H](CC(C)C)C(=O)N[C@@H](CCCCN)C(=O)N[C@@H](CCC(=O)O)C(=O)N[C@@H](CCC(=O)O)C(=O)N[C@@H](CO)C(=O)N[C@@H](Cc1ccccc1)C(=O)N[C@@H](CCCNC(=N)N)C(=O)N[C@@H](CC(=O)O)C(=O)N1CCC[C@H]1C(=O)N[C@@H](C)C(=O)N[C@@H](CCC(=O)O)C(=O)N[C@H](C(=O)N[C@@H](CC(C)C)C(N)=O)C(C)C` [TACC3 518-532], the IC50 (commonly the point on the concentration scale where inhibition reaches its midpoint) in data set [3] came to 123 ± 6 µM. The half-life at 100 µM in data set [4] is 32 ± 4 min. The Kd in data set [5] (N restrained fit, Run 1) came out at 30.3 µM; in data set [5] (N restrained fit, Run 2), 34.5 µM; in data set [5] (N unrestrained fit, Run 1) it was 46 µM; in data set [5] (N unrestrained fit, Run 2), 36.8 µM.
For the molecule EESFRD[trans‑Pro(4-F)]AEVLGTGA [TACC3 trans-(4-F)Pro528 522-536], the IC50 in data set [6] turned out to be 60 µM.
Same read-out and setting: with EESFRDPAE[Nle]LGTGA [TACC3 V531nL 522-536] the figure was above 300 µM; with EES[Phe(4-Cl)]RDPAEVLGTGA [TACC3 (4-Cl)Phe525 522-536], 46 µM; with EES[Phe(4-Br)]RDPAEVLGTGA [TACC3 (4-Br)Phe525 522-536], 34 µM.
Turning to EESFRDPAEV[Nle]GTGA [TACC3 L532nL 522-536], in data set [6], the IC50 was found to be 213 µM.
Same read-out and setting: with EESFRD[cis‑Pro(4-F)]AEVLGTGA [TACC3 cis-(4-F)Pro528 522-536] the figure was above 200 µM; with LELKEESFRDPAEVL (not fully specified; L520C/R526C biphenyl constraint; Aurora-A C290A+C393A) [TACC3 L/R-Bph 518-532], around 30 µM.
